The source made the active and inactive calls. No cut-off for these calls is given here.
Tests used:
[1] = biological target: T1, G-protein coupled receptor 55 (Homo sapiens, UniProt Q9Y2T6); test: Antagonist activity at beta-galactosidase fused human GPR55 expressed in CHO cells assessed as inhibition of LPI-induced receptor activation by measuring beta-arrestin 2 recruitment at upto 10 uM incubated for 90 mins by PathHunter chemiluminescence based assay; type: cell-based
Cannabinoid receptor 2 = Cannabinoid receptor 2 (Homo sapiens, UniProt P34972); test: Displacement of [3H]CP55940 from human CB2 receptor expressed in HEK293 cell membranes assessed as inhibition constant incubated for 90 mins by liquid scintillation spectrometry analysis; parameters: species or system Membrane
Cannabinoid receptor 2, sequence (P34972 whole entry): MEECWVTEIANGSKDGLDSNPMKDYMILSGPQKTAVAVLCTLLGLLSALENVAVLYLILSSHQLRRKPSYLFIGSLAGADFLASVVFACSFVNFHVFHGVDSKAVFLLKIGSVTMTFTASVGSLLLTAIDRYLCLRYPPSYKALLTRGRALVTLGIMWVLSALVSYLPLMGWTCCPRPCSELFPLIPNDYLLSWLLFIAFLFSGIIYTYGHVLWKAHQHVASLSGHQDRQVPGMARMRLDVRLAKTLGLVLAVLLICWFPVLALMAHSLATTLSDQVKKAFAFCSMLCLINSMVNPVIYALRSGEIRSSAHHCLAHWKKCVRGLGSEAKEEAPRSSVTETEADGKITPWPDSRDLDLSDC

Cannabinoid receptor 1 = Cannabinoid receptor 1 (Homo sapiens, UniProt P21554); test: Displacement of [3H]CP55940 from human CB1 receptor expressed in HEK293 cell membranes assessed as inhibition constant incubated for 90 mins by liquid scintillation spectrometry analysis; parameters: species or system Membrane
Cannabinoid receptor 1, sequence (P21554 whole entry, the tested form may be a part): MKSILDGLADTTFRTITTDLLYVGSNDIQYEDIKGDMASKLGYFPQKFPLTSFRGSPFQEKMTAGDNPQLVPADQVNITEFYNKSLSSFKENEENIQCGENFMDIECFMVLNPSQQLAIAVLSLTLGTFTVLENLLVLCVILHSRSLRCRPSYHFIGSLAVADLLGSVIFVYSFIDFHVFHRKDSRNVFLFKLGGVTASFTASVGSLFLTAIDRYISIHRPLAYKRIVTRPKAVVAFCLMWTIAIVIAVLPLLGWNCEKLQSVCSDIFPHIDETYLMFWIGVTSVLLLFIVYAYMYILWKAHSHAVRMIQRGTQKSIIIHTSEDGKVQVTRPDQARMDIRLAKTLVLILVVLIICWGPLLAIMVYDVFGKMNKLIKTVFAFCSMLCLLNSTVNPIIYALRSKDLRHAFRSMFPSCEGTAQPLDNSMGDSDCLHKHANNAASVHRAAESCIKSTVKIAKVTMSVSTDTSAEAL

[2] = biological target: T1, G-protein coupled receptor 55; test: Antagonist activity at beta-galactosidase fused human GPR55 expressed in CHO cells assessed as inhibition of LPI-induced receptor activation by measuring beta-arrestin 2 recruitment incubated for 90 mins by PathHunter chemiluminescence based assay; type: cell-based
[3] = biological target: T1, G-protein coupled receptor 55; test: Antagonist activity at human GPR55 expressed in human U2OS cells assessed as inhibition of LPI-induced receptor activation by measuring beta-arrestin 2 recruitment preincubated for 30 mins followed by LPI addition and measured after 75 mins by microplate reader analysis; type: cell-based
[4] = biological target: T1, G-protein coupled receptor 55; test: Inverse agonist activity at human GPR55 expressed in HEK293 cells coexpressing serum response element assessed as reduction in MAPK/ERK signalling pathway by measuring SRE response incubated for 5 hrs in serum-free medium by luciferin based bioluminescence analysis; type: cell-based
[5] = biological target: T1, G-protein coupled receptor 55; test: Antagonist activity at human GPR55 expressed in HEK293 cells coexpressing serum response element assessed as inhibition of LPI-induced MAPK/ERK signalling pathway by measuring SRE response incubated for 5 hrs in serum-free medium by luciferin based bioluminescence analysis; type: cell-based
CHO = test: Cytotoxicity against CHO cells assessed as reduction in cell viability at upto 10 uM incubated for 24 hrs by XTT assay; type: toxicity, cell-based, Cricetulus griseus; conditions: chinese hamster

T1 sequence (Q9Y2T6 whole entry, the tested form may be a part): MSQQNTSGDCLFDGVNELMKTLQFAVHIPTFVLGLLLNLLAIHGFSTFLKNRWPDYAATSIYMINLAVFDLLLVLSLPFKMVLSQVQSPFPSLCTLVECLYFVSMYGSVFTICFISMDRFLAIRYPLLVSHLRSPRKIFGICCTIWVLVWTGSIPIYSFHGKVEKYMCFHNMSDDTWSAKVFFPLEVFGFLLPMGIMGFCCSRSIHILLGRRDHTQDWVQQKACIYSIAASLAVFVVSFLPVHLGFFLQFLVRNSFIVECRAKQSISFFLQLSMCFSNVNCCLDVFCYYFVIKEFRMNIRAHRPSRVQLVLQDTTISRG

SMILES	inhibition [1]	Ki (Cannabinoid receptor 2)	Ki (Cannabinoid receptor 1)	further results
COCCc1nc(N2CCN(C(=O)c3ccco3)CC2)c2c3c(sc2n1)CC(C)(C)CC3	inactive	> 4 µM	> 4 µM	–
O=C(c1ccco1)N1CCN(c2c[nH]c(=O)cn2)CC1	inactive	–	–	–
Cc1nc(O)c(C)c(N2CCN(C(=O)c3ccco3)CC2)n1	inactive	–	–	–
Cc1ccc2c(c1)sc1nc(C)nc(N3CCN(C(=O)c4ccco4)CC3)c12	–	> 4 µM	> 4 µM	–
Cc1cc(C)c2nc(-c3ccccn3)cc(C(=O)N3CCN(C(=O)c4ccco4)CC3)c2c1	inactive	–	–	–
Cc1nc(N2CCCN(C(=O)c3ccco3)CC2)c2c3c(sc2n1)CCCC3	–	> 4 µM	> 4 µM	–
COCc1nc(N2CCN(C(=O)c3ccco3)CC2)c2c3c(sc2n1)CC(C)(C)CC3	inactive	> 4 µM	> 4 µM	–
O=C(c1ccco1)N1CCN(c2ncnc3sc4c(c23)CCCC4)CC1	–	> 4 µM	> 4 µM	IC50 [2]: 0.68 µM
O=C(c1ccco1)N1CCN(c2ncnc3sc(-c4ccccc4)cc23)CC1	inactive	–	–	–
Cc1nc(O)c(C)c(Cl)n1	–	> 4 µM	> 4 µM	–
Cc1nc(N2CCN(C(=O)c3ccco3)CC2)c2c3c(sc2n1)CC(C)CC3 (stereo not drawn)	–	–	–	IC50 [3]: 0.43 µM
Cc1nc(Nc2ccc(S(=O)(=O)Nc3onc(C)c3C)cc2)c2c3c(sc2n1)CCCC3	–	–	–	IC50 [2]: 29.3 µM
Cc1c(Cl)nc(C)n(C)c1=O	–	> 4 µM	> 4 µM	–
Cc1cc(C)c2nc(-c3ccccn3)cc(C(=O)O)c2c1	–	> 4 µM	> 4 µM	–
Cc1c(N2CCN(C(=O)c3ccco3)CC2)nc(C)n(C)c1=O	inactive	–	–	–
CC1(C)CCc2c(sc3nc(CCO)nc(N4CCN(C(=O)c5ccco5)CC4)c23)C1	–	–	–	IC50 [2]: 11.7 µM
O=C(c1ccco1)N1CCN(c2nc(C3CC3)nc3sc4c(c23)CCCC4)CC1	–	–	–	IC50 [3]: 0.86 µM
Cc1nc(N2CCN(C(=O)c3ccco3)CC2)c2c(n1)sc1ccccc12	–	> 4 µM	> 4 µM	–
Cc1nc(N2CCN(C(=O)c3ccco3)CC2)c2c3c(sc2n1)CC(C)(C)CC3	–	> 4 µM	> 4 µM	IC50 [2]: 0.28 µM; EC50 [4]: 0.9 µM; IC50 [5]: 1.5 µM; Activity (CHO): Non-Toxic
Cc1nc(Nc2ccc(S(=O)(=O)Nc3onc(C)c3C)cc2)c2c3c(sc2n1)CC(C)(C)CC3	–	–	–	IC50 [2]: 3.35 µM
O=C(c1ccco1)N1CCN(c2nc(CCl)nc3sc4c(c23)CCCC4)CC1	–	> 4 µM	> 4 µM	–
Cc1nc(N2CCN(C(=O)c3ccco3)CC2)c2c3c(sc2n1)CCCC3	–	–	–	IC50 [2]: 2.02 µM; IC50 [5]: 7.5 µM
O=c1cnc(Cl)c[nH]1	–	> 4 µM	> 4 µM	–
CC1(C)CCc2c(sc3nc(CN4CCOCC4)nc(N4CCN(C(=O)c5ccco5)CC4)c23)C1	inactive	–	–	–
CC1(C)CCc2c(sc3nc(CCN4CCOCC4)nc(N4CCN(C(=O)c5ccco5)CC4)c23)C1	inactive	> 4 µM	> 4 µM	–
Cc1nc(N2CCCN(C(=O)c3ccco3)CC2)c2c3c(sc2n1)CC(C)(C)CC3	–	> 4 µM	> 4 µM	–
O=C(c1ccco1)N1CCN(c2ncnn3cccc23)CC1	inactive	–	–	–
CC1(C)CCc2c(sc3nc(CO)nc(N4CCN(C(=O)c5ccco5)CC4)c23)C1	–	> 4 µM	> 4 µM	–
Cn1ncc2ncnc(N3CCN(C(=O)c4ccco4)CC3)c21	inactive	–	–	–
